The nature of data set [1]: Coughing caused by mechanical stimulation of the trachea bifurcatio on rabbits narcotised by nembutal, i.v. administration. The data set is classed as in vivo, rabbit.
The next data set can be described thus: in vivo. The following applies: rat, ip.
Data set [2] can be described thus: Alleviation of coughing caused by 15% citric acid spray on guinea pig, oral administration. The data set is classed as in vivo. The following applies: for ED50: Cavia porcellus, po; for absolute strength of the antitussive effect, in words: Table I. On the procedure:
The aforesaid facts are supported by Table I wherein the ID50 mg/kg values of 3,7-dihydro-3-methyl-7-[(5-methyl-1,2,4-oxadiazole-3-yl)-methyl]-1H-purine-2,6-dione (the most simple representative of the compounds of the Formula I); two known 1,2,4-oxadiazole-type antitussive agents, codeine and dextromethorphane (morphine type reference compounds) in the alleviation of coughing caused by a 15% citric acid spray are disclosed. […] As test animal guinea pigs are used. (Method: Arzneimittel Forschung 1966, 617-621). Test compound No. 5 is 2-(3-methyl-xanthine-7-yl)-acetamidoxime (a starting material of the Formula II).
Alleviation of coughing caused by 15% citric acid spray on
guinea pig, the test compounds are administered orally
Antitussive effect of p.o. administered 3,7-dihydro-3-methyl-7-
[(5-methyl-1,2,4-oxadiazole-3-yl)-methyl]-lH--purine-2,6-dione
on coughing induced by 15% citric acid spray on guinea pig

[3] abbreviates: 1 hour pre-treatment, 15% citric acid spray, read-out: Antitussive effect, measured 1 hour after oral administration ID50.

Molecules are shown by their SMILES. Structures can show the parent of a compound that is named as a salt.

As to `COc1ccc2c3c1O[C@H]1[C@@H](O)C=C[C@H]4[C@@H](C2)N(C)CC[C@@]341` [Compound 4, Codeine.HCl, reference compound], in data set [1] (rabbit, i.v.), the “antitussive effect relative to compound No. 1” value is given as “the same or a somewhat lower antitussive effect”. In the data set “in vivo”, this molecule had an LD50 of 72.4 mg/kg.

As to `COc1ccc2c(c1)[C@]13CCCC[C@@H]1[C@H](C2)N(C)CC3` [Compound 6, Dextromethorphan, reference compound], the “antitussive effect relative to compound No. 1” value in data set [1] (rabbit, i.v.) is “the same or a somewhat lower antitussive effect”.

Regarding `Cc1nc(Cn2cnc3c2c(=O)[nH]c(=O)n3C)no1` [Compound 1, 3,7-dihydro-3-methyl-7-[(5-methyl-1,2,4-oxadiazole-3-yl)-methyl]-1H-purine-2,6-dione], the ED50 is 8.5 mg/kg in data set [2] (setting [3]); 14.4 mg/kg in data set [2] (pre-treatment time 2.0 h, read-out: ID50, pre-treatment time 2.0 h); 13.8 mg/kg in data set [2] (pre-treatment time 4.0 h, read-out: ID50, pre-treatment time 4.0 h); 32.6 mg/kg in data set [2] (pre-treatment time 8.0 h, read-out: ID50, pre-treatment time 8.0 h); 7.5 mg/kg in data set [2] (read-out: ID50, pre-treatment time 0.5 h, p.o., pre-treatment time 0.5 h); 2.24 mg/kg in data set [1] (Oryctolagus cuniculus, iv, 2 min, rabbit, i.v., 2 minutes after administration, calculated according to Lichfield-Wilcoxon). In addition, the “absolute strength of the antitussive effect, in words” value in data set [2] (p.o.) is “significantly higher than that of reference compounds Nos. 2-4 and 6”. For the same molecule, the “duration of oral antitussive effect” value in data set [2] (p.o., Table I/A) is given as “very long-lasting”. For the same molecule, in data set [1] (rabbit, 0.5-8.0 mg/kg i.v.), the “decrease of coughing caused by mechanical stimulation” value is “decreases in dose-dependant manner”. Besides, the “therapeutical index relative to reference compounds Nos. 4 and 6” value in data set [1] (taking into consideration the I.O. toxicity data) is on record as “ten times more favorable”. In the data set “in vivo”, this molecule gave an LD50 of 700 mg/kg.

On to `Cc1nc(Cn2cnc3c2c(=O)n(C)c(=O)n3C)no1` [Compound 2, 3,7-dihydro-1,3-dimethyl-7-[(5-methyl-1,2,4-oxadiazole-3-yl)-methyl]-1H--purine-2,6-dione, reference compound], for which the ED50 in data set [2] (setting [3]) turned out to be 111 mg/kg.

In the case of `Cn1c(=O)[nH]c(=O)c2c1ncn2CC(N)=NO` [Compound 5, 2-(3-methyl-xanthine-7-yl)-acetamidoxime, reference compound], the “Antitussive effect at 50 mg/kg” value in data set [2] (50 mg/kg p.o., 1 hour after administration) was “inactive”. Also, the “absolute strength of the antitussive effect, in words” value in data set [2] (p.o.) is “practically negligible”.

A word on the LD50: it is the dose at which mortality reaches 50%. Higher therefore signals a less toxic substance.
